The source of these data is PMC4673326, “Design and Synthesis of a Novel Cationic Peptide with Potent and Broad-Spectrum Antimicrobial Activity” (BioMed Research International, 2015).

Ends that are not written are not given here. Bounds are passed on as bounds.

As a reminder, the MIC is the lowest concentration found to suppress growth. A high value points to a less susceptible organism.

Type in all cases: cell-based
One data set deals with Aspergillus niger. As to the method:
(§1) Two Gram-positive bacteria, 3 Gram-negative bacteria, and 2 fungi were selected to measure antibacterial activity of peptides. The strains were provided by Department of Microbiology in China Pharmaceutical University and were stored at 4°C until use.
(§2) Antimicrobial activity was evaluated using an inhibition zone assay or determination of the minimal inhibitory concentration (MIC) value with minor modifications as described previously: • Inhibition zone assay: agar plates were seeded with strains (about 10^6 cells in 10 mL of 1% agar medium). Wells (3 mm in diameter) were punched out and a 5 μL peptide sample dissolved in water was loaded. Controls were loaded with water. After incubation at 37°C overnight, the diameter of the inhibition zone was determined. • Determination of the MIC value: MICs were determined using a standard serial dilution method in appropriate medium for each bacterial strain listed in Table 3. In brief, 1 mL of different peptides dilution solutions was poured into a series of sterile plates, and then 9 mL appropriate medium that was preincubated at 37°C was added into a plate and was mixed gently to reach various concentrations (512, 256, 128, 64, 32, 16, 8, 4, 2, 1, and 0.5 μg/mL). Bacteria were added to the 96-well plates. The amount of bacteria for each spot is approximately 10^4 to 10^5 CFU/mL. After incubating the inoculated plate at 37°C for 16 to 18 hours, MICs were determined as the lowest peptide concentration that inhibited bacterial growth. All MICs were determined in two independent experiments performed in duplicate.

The next data set relates to Staphylococcus aureus. How it is done: as §1, §2
A further data set has as its system Escherichia coli. How it is done: as §1, §2
The test system of another data set is Pseudomonas aeruginosa. How it is done:
as §1, §2

The subject of data set [1] is Staphylococcus epidermidis. How it is done: as §1, §2
In the next data set the test system is Klebsiella. Kind of data set: MIC, serial dilution method. Particulars: Klebsiella aeruginosa (so in the source); serial dilution 512-0.5 μg/mL, Luria-Bertani, 37°C, 16 to 18 hours; mean of three independent experiments in duplicate. How it is done:
as §1
as §2, with “All MICs were determined in two independent experiments performed in duplicate.” left out

The test system of another data set is human red blood cells. Kind of data set: Hemolytic assay. Particulars: human RBC in PBS pH 7.4, 37°C, 1 h, absorbance 415 nm. How it is done: Hemolytic activity was determined by the procedure of Yoshida et al. with slight modifications. Fresh human blood (1 mL) was centrifuged at 1000 ×g for 5 min and the precipitates were collected and then washed 3 times with phosphate buffered saline (PBS) (pH 7.4). Precipitates were resuspended in 4-fold volumes of PBS. Then, 995 μL of PBS solution containing serial diluted peptides was added to a human erythrocyte solution of 5 μL. The resulting solution was incubated at 37°C for 1 h and was centrifuged at 1000 ×g for 5 min. The supernatant was diluted 5-fold with PBS and was monitored at 415 nm using a UV spectrophotometer. Zero hemolysis (blank) and 100% hemolysis were determined in PBS and 1% Triton X-100, respectively.

KFRWGKPV-NH2 [KPV-8]: the minimum inhibitory concentration (MIC) (with Aspergillus niger; in the data set with Staphylococcus aureus; against Escherichia coli; with Pseudomonas aeruginosa; in data set [1]; in the data set on Klebsiella) was above 512 µg/mL in each case.
On to KWKKPKLLKKLLK [KWKK-13], for which the MIC in the data set on Aspergillus niger was above 512 µg/mL; against Staphylococcus aureus, above 512 µg/mL; against Escherichia coli it was 256 µg/mL; against Pseudomonas aeruginosa it was above 512 µg/mL; in data set [1], above 512 µg/mL; in the data set on Klebsiella, above 512 µg/mL.
Regarding KWKLFKKIWGKPV-NH2 [KPV-13], the MIC is above 512 µg/mL with Aspergillus niger; above 512 µg/mL with Staphylococcus aureus; 512 µg/mL in the data set with Escherichia coli; above 512 µg/mL against Pseudomonas aeruginosa; 32 µg/mL in data set [1]; above 512 µg/mL in the data set with Klebsiella.
Substance KWKYPKLLKKLLK [KW-13] came in with a hemolysis in the data set with human red blood cells (100% = 1% Triton X-100, tested at 10, 40, 160 and 640 μg/mL, value holds even at 640 μg/mL) below 1%. Moreover, the MIC against Aspergillus niger is 256 µg/mL; against Staphylococcus aureus, 16 µg/mL; against Escherichia coli it was 64 µg/mL; against Pseudomonas aeruginosa it was 128 µg/mL; in data set [1] it was 4 µg/mL; in the data set on Klebsiella, 128 µg/mL.
Consider Melittin [reference compound], for which the “concentration causing the lysis of whole erythrocytes” value in the data set on human red blood cells is listed as “below 40 μg/mL”.
RRWWRFPPPRFPPRFPPP-NH2 [RFPP-18]: the minimum inhibitory concentration (MIC) is given as above 512 µg/mL in the data set on Aspergillus niger; above 512 µg/mL with Staphylococcus aureus; 128 µg/mL in the data set with Escherichia coli; 256 µg/mL in the data set on Pseudomonas aeruginosa; 512 µg/mL in data set [1]; above 512 µg/mL with Klebsiella.
On to RRWWRFPRFFRRFFR-NH2 [RFFR-15], for which the minimal inhibitory concentration (MIC) with Aspergillus niger was above 512 µg/mL; in the data set on Staphylococcus aureus, 64 µg/mL; in the data set with Escherichia coli, 256 µg/mL; in the data set on Pseudomonas aeruginosa, above 512 µg/mL; in data set [1], 128 µg/mL; with Klebsiella, above 512 µg/mL.
